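Briefly, cells in 96-well plates were exposed to five compound concentrations for 48 h, and endpoints were estimated by linear interpolation. GI50: concentration for 50% inhibition of growth. TGI marks complete inhibition of growth.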
Legend:
Experiment in all cases: NCI anticancer screen, dose series, 48 h
[1] = test system: A498 renal
[2] = test system: HL-60(TB) leukemia
[3] = test system: K-562 leukemia
[4] = test system: NCI-H23 lung
[5] = test system: NCI-H460 lung
[6] = test system: OVCAR-8 ovarian
[7] = test system: RXF 393 renal
[8] = test system: U251 CNS

Structure (SMILES)	GI50 [1] [µM]	TGI [1] [µM]	GI50 [2] [µM]	TGI [2] [µM]	GI50 [3] [µM]	TGI [3] [µM]	GI50 [4] [µM]	TGI [4] [µM]	GI50 [5] [µM]	TGI [5] [µM]	GI50 [6] [µM]	TGI [6] [µM]	GI50 [7] [µM]	TGI [7] [µM]	GI50 [8] [µM]	TGI [8] [µM]
O=C(N/N=C/c1ccncc1)c1ccc(F)cc1	34.8	> 40	> 40	> 40	> 40	> 40	> 40	> 40	> 40	> 40	> 40	> 40	> 40	> 40	> 40	> 40
CC[C@@H](C)/C=C(C)/C=C/C(=O)c1c(O)c(-c2ccc(O)cc2)cn(OC2CC(=O)CCC(C)OC(=O)CC2O)c1=O (stereo partly specified)	1.98	24	0.212	2.86	0.386	> 47.9	0.406	9.29	0.267	2.99	0.354	22.8	0.386	17.8	0.373	12.5
Nc1cc(N)c2nc(NCCc3ccc(Cl)c(Cl)c3)cnc2c1	20.3	34.5	2.15	4.88	3.36	14.1	19.9	45.7	15.4	35	12.7	25.3	13.8	30.2	11.7	23.9
Cc1[nH]nc(C(=O)N/N=C/c2ccccc2Cl)c1N=NN(C)C	–	> 100	–	> 100	–	> 100	–	> 100	–	> 100	–	> 100	–	> 100	–	> 100
CC(=O)N[C@@H](Cc1ccc(OP(=O)(O)O)cc1)C(=O)N[C@H]1CCC(=O)N2CCC[C@@H](C(=O)NC3CCc4ccccc43)N2C1=O (stereo partly specified)	> 25	> 25	> 25	> 25	> 25	> 25	> 25	> 25	> 25	> 25	> 25	> 25	> 25	> 25	> 25	> 25
CCCCOC(=O)c1c(C)[nH]c(/C=C2\N=C(c3ccc[nH]3)C=C2OC)c1C	0.342	2.16	0.581	4	0.155	8.61	0.254	2.6	0.0613	2	0.216	13.8	0.537	3.07	0.12	1.76
COc1ncc(-c2ccc3nccc(C#CCCCCC(=O)NO)c3c2)cc1NS(=O)(=O)c1ccc(F)cc1F	0.0303	0.0962	0.0665	3.06	1.98	16.7	0.984	13	0.109	11.2	0.131	4.08	0.0466	0.75	0.128	2.67
Nc1n[nH]c2ccc([C@@H]3Nc4ccc5cn[nH]c5c4[C@H]4C5CCC(C5)[C@@H]34)cc12 (stereo partly specified)	0.181	0.777	0.326	–	0.252	> 100	0.453	38.5	0.382	> 100	0.606	> 100	0.236	0.724	0.436	> 100
CC(=O)Nc1cc2c3c(cccc3c1)-c1ccccc1-2	11.6	28.6	0.25	> 100	> 100	> 100	38.5	> 100	29.6	> 100	45.9	> 100	15.8	34.9	39.3	> 100
O=C(Nc1cccc(-n2cc(-c3ccncc3)c(-c3ccc(Cl)c(O)c3)n2)c1)Nc1ccc(Cl)c(Cl)c1	0.94	3.17	0.515	> 32.5	1.41	> 32.5	1.22	29.1	0.993	3.57	1.21	> 32.5	1	6.4	1.51	9.68
CC(=O)ON=C1C=CC(=C(C#N)c2ccccc2)C=C1	12.6	47	1.11	4.87	0.556	> 45	4.71	> 47.4	1.51	–	2.07	15	2.68	11.5	0.622	10.5
